Columns and labels:
hCAR1 = target: T1, hCAR1 (Homo sapiens, UniProt Q14994); assay: Cell-based inverse agonist assay (CYP2B6-luciferase reporter in HepG2 cells transfected with hCAR1); details: 24 h treatment; read-out: IC50, inhibition of CAR-mediated CYP2B6-luciferase activity
T1 construct: expressed in transfected cells; host or cells: HepG2 (transient transfection)
T1 sequence (Q14994 1-348 isoform Q14994-2): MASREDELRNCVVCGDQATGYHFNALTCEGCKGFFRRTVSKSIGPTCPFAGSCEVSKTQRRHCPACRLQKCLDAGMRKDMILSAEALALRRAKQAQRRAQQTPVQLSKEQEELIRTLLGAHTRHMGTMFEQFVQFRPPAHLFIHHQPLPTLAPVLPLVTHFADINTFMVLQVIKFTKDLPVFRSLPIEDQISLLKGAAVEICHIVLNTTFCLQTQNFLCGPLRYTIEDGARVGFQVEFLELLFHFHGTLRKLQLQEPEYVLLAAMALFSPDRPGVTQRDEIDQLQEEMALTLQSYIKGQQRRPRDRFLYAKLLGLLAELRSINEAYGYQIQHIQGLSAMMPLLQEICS
Protocol: HepG2 cells grown in flasks were transfected with Flag-hCAR1 and CYP2B6-luciferase reporter at a 1:3 ratio with Fugene HD (Promega) and incubated for 24 h. Cells were trypsinized and plated in 384-well plates (CulturPlate-384, PerkinElmer) at 5000 cells/well for the primary or secondary screening assays. Cells were treated with chemicals transferred by using a pintool 24 h prior to measuring reporter luciferase activity with SteadyLite firefly luciferase reagent and an EnVision plate reader (PerkinElmer). […] PXR activity was measured in HepG2 cells stably transfected with hPXR and CYP3A4-luciferase reporter (previously described as PXR Clonel cells, see Li, G., et al. (2012) Tox. Appl. Pharm. 258, 268-274; and Lin, W., et al. (2008) J. Biol. Chem. 283, 30650-30657). […] The luminescence signal was detected by using an Envision plate reader (PerkinElmer) and used to calculate the percentage of PXR activation. […] A flowchart of our screening strategy is illustrated in FIG. 1A. HepG2 cells were transiently transfected with pcDNA-hCAR1 and CYP2B6-luciferase plasmids and treated with varying concentrations of the test compounds in 384-well plates for 24 h, and CAR-mediated luciferase activity was measured. Twenty-five hits, defined as those displaying dose-responsive inhibitory effect on the constitutively active hCAR1, were selected and tested in various secondary screening assays. CINPA1 (FIG. 1B) was selected based on its potent inhibitory effect on hCAR1 and lack of detectable agonistic activity against PXR.

[1] = system: CAR- and PXR-regulated genes in human primary hepatocytes; assay: Quantitative real-time PCR in human primary hepatocytes; assay type: cell-based; details: 48 h
Description: RNA was extracted, cDNA synthesized, and gene expression analyzed by performing real-time PCR using Taqman probes for each gene. […] LS174T cells were maintained in 10% charcoal-dextran-treated, FBS media for 4 days before the experiment. […] Briefly, human primary hepatocytes (HPH) were maintained in William's E media with supplements for 4 days before treatment. […] RNA extracted was used for cDNA synthesis and measured by performing quantitative real-time PCR assays with Taqman probes.
Briefly, human primary hepatocytes (donor 5) were maintained in William's E Media with supplements for 4 days prior to treatment. […] RNA extracted was used for cDNA synthesis and measured by quantitative real-time PCR with Taqman probes. CYP2B6 and CYP3A4 mRNA were normalized to the internal control 18S and DMSO-treated samples were set to 1.
Cell lines or human hepatocytes were treated with chemicals for 24-48 hours before RNA was extracted and purified by using the Maxwell 16LEV simplyRNA tissue kit (Promega). Then, cDNA was prepared from 2 μg of RNA, and diluted cDNA was used to perform quantitative RT-PCR assays by using TaqMan probes (ABI; 7500 Thermocycler) with 18S as the internal standard.

[2] = target: T2, hCAR1 interaction with coregulators (SRC-1, TIF2, SMRTα, mNCoR) (Homo sapiens, UniProt Q14994); assay: Mammalian two-hybrid assay (HEK293T cells); assay type: cell-based
T2 construct: expressed in transfected cells; host or cells: HEK293T
T2 sequence (Q14994 1-348 isoform Q14994-2): T1 sequence (Q14994 1-348 isoform Q14994-2)
Description: Briefly, mammalian two-hybrid assays were set up in HEK293T cells transfected with expression plasmids encoding VP16AD-hCAR1 fusion protein, GAL4DBD-co-activator fusion proteins, and the reporter plasmid pG5luc. […] Fold interaction represents pG5luc reporter activity normalized to the Renilla luciferase internal control. Data presented are the mean±SD of at least three independent transfections. *, p<0.001 compared to DMSO treatment within the indicated co-activator set. […] Briefly, mammalian two-hybrid assays were set up in HEK293T cells transfected with expression plasmids encoding VP16AD-hCAR1 fusion protein, GAL4DBD-co-repressor fusion proteins, and the reporter plasmid pG51luc. […] Fold interaction represents pG5luc reporter activity normalized to the Renilla luciferase internal control. Data presented are the mean±SD of at least three independent transfections. *, p<0.001 compared to DMSO treatment within the indicated co-repressor set.
The pACT-hCAR1, pBIND-coregulator peptide and pG5-luc were cotransfected into HEK293T cells. Renilla luciferase is constitutively expressed from the pBIND plasmids. The Dual-Glo Luciferase Assay (Promega) was used to measure pG5-luc luciferase activity. The relative luciferase activity was determined by normalizing firefly luciferase activity with Renilla luciferase activity.

In the case of CCOC(=O)Nc1ccc2c(c1)N(C(=O)CN(CC)CC)c1ccccc1CC2 [CINPA1], the IC50 (hCAR1) is reported as 0.072 µM, the “CITCO-induced CAR transactivation of the CYP2B6 gene” value ([1]; 1 μM CITCO plus CINPA1 (5, 1 or 0.3 μM for Donor 1, 2, 3)) is reported as “effectively inhibited” and the “rifampicin-induced PXR-mediated gene expression” value ([1]; 5 μM CINPA1 with 10 μM rifampicin) is reported as “could not reduce”. The “corepressor (SMRTα, mNCoR) interaction with CAR-LBD” value ([2]; 5 μM CINPA1, 24 h) was “increased interaction” and the “coactivator (SRC-1, TIF-2) binding to CAR-LBD” value ([2]; 5 μM CINPA1, presence or absence of CITCO, 24 h) was “reduced SRC-1 and TIF-2 coactivator binding”.
